We go through two compounds from patent publication US6864247B2, “Therapeutic agents for glomerulosclerosis” (priority 1999, dated 2005).

The test system of data set [1] is rat model of anti-Thy 1 antibody-induced nephritis. As to the kind of experiment: Renal histology (glomerular cell count, glomerulosclerosis index, glomerular volume) in rat model of anti-Thy 1 antibody-induced nephritis. The class given is in vivo. Particulars: 0.4 μg/kg intravenously every two days from the day after OX-7, day 7; for glomerular cell count: FIG. 1; for glomerular volume: FIG. 3; for glomerulosclerosis index: PAM stained samples, FIG. 2. An excerpt:
The pharmacological effect of 22-oxa-1α,25-dihydroxyvitamin D3 used as an active ingredient in the present invention can be evaluated on a rat model of a anti-Thy 1 antibody-induced nephritis characterized by showing increased mesangial cell proliferation and mesangial matrix production after administration of an anti-Thy 1 antibody. The pharmacological effect of test compounds can be evaluated by administering an anti-Thy 1 antibody to such a rat model followed by the test compounds, collecting renal tissue at an appropriate time and determining the glomerular cell count or glomerulosclerosis index or determining the expression of collagen by a standard method such as an immunohistochemical technique.
(§1) An anti-Thy 1 antibody (OX-7 purchased from CEDARLANE, Ontario, Canada) was administered into the tail vein of 6-week-old male Wistar rats at 1 mg/kg to induce anti-Thy 1 nephritis. Next day after OX-7 administration, 22-oxa-1α,25-dihydroxyvitamin D3 was intravenously administered at 0.4 μg/kg every two days, and on day 7 after administration, serum, urine and renal tissue were collected.
(§2) For comparison, 1α,25-dihydroxyvitamin D3 was administered in the same manner instead of 22-oxa-1α,25-dihydroxyvitamin D3. Rats not treated with the anti-Thy 1 antibody were used as normal controls. Rats treated with the anti-Thy 1 antibody alone without any vitamin D derivative were used as disease controls.
In the renal tissue, the glomerular cell count, glomerulosclerosis index and glomerular volume were determined (FIGS. 1, 2 and 3). The “glomerular cell count” was determined by counting every cell in every measurable glomerulus on hematoxylin-eosin stained samples. The “glomerulosclerosis index” was evaluated on PAM (periodic acid-methenamine-silver) stained samples according to the method of Raji et al. The “glomerular volume” was determined by using NIH image to calculate the volume of glomeruli read by an image analyzer.

Data set [2] concerns type I collagen (ColI). As to the kind of experiment: Immunohistological examination of type I collagen expression in the mesangium, anti-Thy 1 nephritis rat. The class given is in vivo. The note with it: 0.4 μg/kg intravenously every two days; day 7; immunohistochemistry. How it is done: as §1, §2
(§3) In the renal tissue, the expression of type I collagen (ColI) and type IV collagen (ColIV) in the mesangium was immunohistologically examined (FIGS. 4-11). Staining was performed on 4 μm sections using an ABC Elite peroxidase staining kit (Vector Lab., Burlingame, Calif., U.S.A.) according to the manufacturer's instructions. The primary antibodies used were a guinea pig anti-rat type I collagen antibody (Boehringer Ingelheim, Co., Ltd., Ingelheim, Germany) and a rabbit anti-rat type IV collagen antibody (Boehringer Ingelheim, Co., Ltd., Ingelheim, Germany).

The subject of data set [3] is type IV collagen (ColIV). Description: Immunohistological examination of type IV collagen expression in the mesangium, anti-Thy 1 nephritis rat. Particulars: 0.4 μg/kg intravenously every two days; day 7; immunohistochemistry. The format is in vivo. How it is done: as §1, §2, §3
Data set [4] concerns rat model of anti-Thy 1 antibody-induced nephritis. Description: Urinary albumin by ELISA in anti-Thy 1 nephritis rat. The format is in vivo. Particulars: 0.4 μg/kg intravenously every two days; day 7; FIG. 13. How it is done:
as §1, §2
In addition, serum calcium (Ca) was determined with an autoanalyzer (AUTOANALYZER, HITACHI 7170, Tokyo, Japan) and urinary albumin (uALB) was determined with an ELISA kit NEPHRAT II (EXOCELL, INC) (FIGS. 12 and 13).

Data set [5] concerns human mesangial cells. The note with it: literature report; cited from earlier work.
For data set [6] the following is noted: literature report; cited from earlier work.
The conditions of data set [7]: described in Japanese Patent No. 2854600; cited from earlier work.

Each structure is given as a SMILES string.

For `C=C1/C(=C\C=C2/CCC[C@]3(C)[C@@H]([C@H](C)CCCC(C)(C)O)CC[C@@H]23)C[C@@H](O)C[C@@H]1O` [1α,25-dihydroxyvitamin D3, reference compound], in data set [1], the glomerular cell count result is listed as “significantly suppressed”, the glomerular volume result was “no effect” and the glomerulosclerosis index result is recorded as “significantly suppressed”. The “expression of ColI in the mesangium” value in data set [2] is given as “clearly inhibited”. For the same compound, in data set [3], the “expression of ColIV in the mesangium” value was “clearly inhibited”. In data set [4], the “uALB levels (urinary albumin)” value was “significantly suppressed”. Besides, the “antiproliferative effect on human mesangial cells” value in data set [5] is listed as “antiproliferative effect”.
Turning to `C=C1/C(=C\C=C2/CCC[C@]3(C)[C@@H]([C@H](C)OCCC(C)(C)O)CC[C@@H]23)C[C@@H](O)C[C@@H]1O` [22-oxa-1α,25-dihydroxyvitamin D3, 1α,3β-dihydroxy-20α-(3-hydroxy-3-methylbutyloxy)-9,10-seco-5,7,10 (19)-pregnatriene], in data set [1], the glomerular cell count result is “significantly suppressed”, the glomerular volume result is recorded as “no effect” and the glomerulosclerosis index result is “significantly suppressed”. The “expression of ColI in the mesangium” value in data set [2] is listed as “clearly inhibited”. Also, in data set [3], the “expression of ColIV in the mesangium” value is listed as “clearly inhibited”. Moreover, the “uALB levels (urinary albumin)” value in data set [4] is “significantly suppressed”. Also, in data set [6], the differentiation-inducing effect result was “show a differentiation-inducing effect” and the hypercalcemia result is on record as “without causing hypercalcemia”. Moreover, the urinary protein excretion result in data set [7] is “inhibits”.
